Data taken from publication PMC8490515, “Neuromedin B receptor stimulation of Cav3.2 T-type Ca^2+ channels in primary sensory neurons mediates peripheral pain hypersensitivity” (Theranostics, 2021).

How the values were obtained:
[1] = system: Nmb-induced mechanical hypersensitivity in mice; test: Nmb-induced mechanical hypersensitivity, effect of pretreatment (Figure 7C); type: in vivo, mouse; conditions: intra-TG KT-5720 2 nmol prior to 1 nmol Nmb; 1 h; n = 8 - 10
Experimental: Mice were housed on a 12 h light/dark cycle, maintained in a humidity- and temperature-controlled room with water available ad libitum and were acclimated to the experimenter for 2 d before the first behavioural observations. Experimenters were blinded to the treatment or genotypes of the mice. As described previously, [31], an Orofacial Stimulation Test (Ugo Basile, Italy) was used for the measurement of hypersensitivity to the mechanical stimulation of the trigeminal area. Briefly, the mice initially underwent one week of adaptation trainings after a 12 h fasting food period. Each mouse was then placed in a cage in which there was an Orofacial Stimulation Test system. […] The contact number and total duration of time the mouse spent acquiring the reward were analyzed with the ORO software.
For experiments that several time points are needed to be checked in 24 h, von Frey test was used, as orofacial stimulation test can be checked only once a day, [32]. […] Mechanical hypersensitivity was assessed as described in previous studies, [33]. In brief, the threshold was assessed with a set of von Frey hairs (0.02-2.56 g, Stoelting) applied to the whisker pad in an ascending series of trials, with three separate von Frey stimulations applied per series. The threshold was determined when mice moved their heads away briskly and strongly from at least one of the three stimuli. […]

Cav3.3 (α1I) = test: Cav3.3 channel currents in HEK293 cells coexpressing NmbR; type: cell-based, human; conditions: 100 nM Nmb; -110 mV to -30 mV; n = 7
PKA = PKA activity assay in TG cells (Pep Tag); type: cell-based, mouse; conditions: 100 nM Nmb, 30 min; triplicate
Experimental: PKA enzymatic activity in cell lysates was measured using the Pep Tag assay for nonradioactive detection of PKA (Promega, Madison, WI, USA) as described in our previous studies. Briefly, TG cells were cultured in 12-well plates and preincubated with BIM23042 (0.5 μM) or compound C (10 μM) followed by exposure to 100 nM Nmb for 30 min. TG cells were washed with ice-cold phosphate-buffered saline and placed on ice. PKA was extracted from the cell lysates with cold PKA extraction buffer (25 mM Tris-HCl, pH 7.4, 0.5 mM EDTA, 0.5 mM EGTA, 10 mM β-mercaptoethanol, 1 μg/mL leupeptin and 1 μg/mL aprotinin). The assay was conducted according to the manufacturer's instructions.

[2] = system: heat hypersensitivity in mice; test: Heat test, head withdrawal latency (HWL); type: in vivo, mouse; conditions: intra-TG 1 nmol or 5 nmol
Experimental: For experiments that several time points are needed to be checked in 24 h, von Frey test was used, as orofacial stimulation test can be checked only once a day, [32]. For the von Frey test, the mice were placed in metal mesh boxes and allowed 30 min for habituation before examination. Mechanical hypersensitivity was assessed as described in previous studies, [33]. In brief, the threshold was assessed with a set of von Frey hairs (0.02-2.56 g, Stoelting) applied to the whisker pad in an ascending series of trials, with three separate von Frey stimulations applied per series. The threshold was determined when mice moved their heads away briskly and strongly from at least one of the three stimuli. Dixon's up-down method was used to determine the 50% probability of escape threshold. For thermal test, a heat stimulus was applied to the maxillary whisker pad skin by radiant heat (IITC Life Science). Heat sensitivity was expressed as head-withdrawal latency (HWL). The radiant heat intensity was adjusted so that basal HWL is between 10-15 s, with a cut-off of 18 s to prevent tissue damage. Chronic inflammatory pain was induced by subcutaneous injection of 20 μL of complete Freund's adjuvant (CFA) into the left side of the buccal pad. […]

[3] = system: p42 MAPK in Rat-1 cells transfected with the Nmb-preferring receptor; conditions: PKC-independent and pertussis toxin-insensitive; ref [62]; cited from earlier work
From the text: In contrast, stimulation of PKC either by insulin-like growth factor in dorsal root ganglion neurons or by angiote ...

[4] = system: nociception and neurogenic inflammation; conditions: application of Nmb; ref [4], [5]; cited from earlier work
From the text: It has been well established that T-type channels promote Ca^2+ entry that disrupts the resting membrane potential and can modulate neuronal activity in the peripheral and central nervous systems, thus improving transmission efficiency. In the peripheral sensory neurons this low activation threshold property of T-type channels typically results in the amplification of sensory signals, increased afferent sensory transmission and, in particular, increased pain perception, [74].

| Compound | effect on Nmb-induced mechanical hypersensitivity [1] | increase of Cav3.3 channel currents (Cav3.3 (α1I)) | PKA activity (PKA) | head withdrawal latency effect, duration [2] | head withdrawal latency (HWL) ([2]; at 1 h) | p42 MAPK activation [3] | pro-nociceptive effects of Nmb [4] |
| --- | --- | --- | --- | --- | --- | --- | --- |
| CCCCCCOC(=O)[C@]1(O)C[C@@H]2O[C@@]1(C)n1c3ccccc3c3c4c(c5c6ccccc6n2c5c31)C(=O)NC4 [KT-5720] | abolished | – | – | – | – | – | – |
| Neuromedin B [Nmb] | – | 2.9 ± 1.6% | increase in PKA activity | maintained at 3 h | significantly decreased the head withdrawal latency | activated p42 MAPK | can induce pro-nociceptive effects |
